# Values of other authors, collected in patent US20210307362A1, “Supplement for animal feed for sucking pigs” (Proviron Holding N.V., priority 2018, published 2021).
compound,measurement,value
CCCC(=O)OCC(COC(=O)CCC)OC(=O)CCC [Glycerol tri butyrate],solubility in water,insoluble in water
